Test results: the Kinase Knowledgebase extract (Sharma et al. 2016)

How the values were obtained:
PIK3CB (Human) = PIK3CB (Human) (UniProt P42338); assay: Assessment of PIK3CB Kinase Activity
PIK3CA (human) = PIK3CA (human) (UniProt P42336); assay: Assessment of PIK3CA Kinase Activity
Sequence of PIK3CA (human) (P42336 whole entry, looked up): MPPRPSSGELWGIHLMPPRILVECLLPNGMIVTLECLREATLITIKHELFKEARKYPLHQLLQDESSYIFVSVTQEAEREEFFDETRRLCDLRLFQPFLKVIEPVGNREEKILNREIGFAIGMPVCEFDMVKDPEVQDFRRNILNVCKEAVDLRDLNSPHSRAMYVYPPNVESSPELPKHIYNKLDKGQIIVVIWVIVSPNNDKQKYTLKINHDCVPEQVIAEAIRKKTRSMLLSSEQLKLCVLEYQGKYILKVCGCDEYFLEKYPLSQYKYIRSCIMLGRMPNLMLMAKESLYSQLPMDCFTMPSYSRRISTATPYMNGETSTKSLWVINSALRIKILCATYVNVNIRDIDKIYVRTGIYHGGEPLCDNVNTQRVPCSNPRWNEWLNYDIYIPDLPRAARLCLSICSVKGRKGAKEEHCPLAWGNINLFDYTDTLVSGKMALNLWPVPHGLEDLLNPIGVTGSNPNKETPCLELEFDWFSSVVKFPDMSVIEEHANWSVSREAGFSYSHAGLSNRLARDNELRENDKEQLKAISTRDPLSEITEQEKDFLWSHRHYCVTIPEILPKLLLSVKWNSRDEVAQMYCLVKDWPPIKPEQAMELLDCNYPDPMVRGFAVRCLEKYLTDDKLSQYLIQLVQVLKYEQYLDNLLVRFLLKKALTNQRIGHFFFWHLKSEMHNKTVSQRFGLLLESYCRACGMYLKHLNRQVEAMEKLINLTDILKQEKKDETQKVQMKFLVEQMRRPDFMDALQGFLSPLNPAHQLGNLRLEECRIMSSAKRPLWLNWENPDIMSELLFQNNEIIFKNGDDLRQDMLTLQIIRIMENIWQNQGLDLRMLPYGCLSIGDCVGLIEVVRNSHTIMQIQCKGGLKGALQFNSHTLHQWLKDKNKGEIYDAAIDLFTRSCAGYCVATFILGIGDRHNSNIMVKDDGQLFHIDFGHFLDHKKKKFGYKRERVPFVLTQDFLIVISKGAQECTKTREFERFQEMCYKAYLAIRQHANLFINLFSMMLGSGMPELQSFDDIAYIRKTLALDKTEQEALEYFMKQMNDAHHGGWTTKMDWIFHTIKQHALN

Sequence of PIK3CB (Human) (P42338 whole entry, looked up): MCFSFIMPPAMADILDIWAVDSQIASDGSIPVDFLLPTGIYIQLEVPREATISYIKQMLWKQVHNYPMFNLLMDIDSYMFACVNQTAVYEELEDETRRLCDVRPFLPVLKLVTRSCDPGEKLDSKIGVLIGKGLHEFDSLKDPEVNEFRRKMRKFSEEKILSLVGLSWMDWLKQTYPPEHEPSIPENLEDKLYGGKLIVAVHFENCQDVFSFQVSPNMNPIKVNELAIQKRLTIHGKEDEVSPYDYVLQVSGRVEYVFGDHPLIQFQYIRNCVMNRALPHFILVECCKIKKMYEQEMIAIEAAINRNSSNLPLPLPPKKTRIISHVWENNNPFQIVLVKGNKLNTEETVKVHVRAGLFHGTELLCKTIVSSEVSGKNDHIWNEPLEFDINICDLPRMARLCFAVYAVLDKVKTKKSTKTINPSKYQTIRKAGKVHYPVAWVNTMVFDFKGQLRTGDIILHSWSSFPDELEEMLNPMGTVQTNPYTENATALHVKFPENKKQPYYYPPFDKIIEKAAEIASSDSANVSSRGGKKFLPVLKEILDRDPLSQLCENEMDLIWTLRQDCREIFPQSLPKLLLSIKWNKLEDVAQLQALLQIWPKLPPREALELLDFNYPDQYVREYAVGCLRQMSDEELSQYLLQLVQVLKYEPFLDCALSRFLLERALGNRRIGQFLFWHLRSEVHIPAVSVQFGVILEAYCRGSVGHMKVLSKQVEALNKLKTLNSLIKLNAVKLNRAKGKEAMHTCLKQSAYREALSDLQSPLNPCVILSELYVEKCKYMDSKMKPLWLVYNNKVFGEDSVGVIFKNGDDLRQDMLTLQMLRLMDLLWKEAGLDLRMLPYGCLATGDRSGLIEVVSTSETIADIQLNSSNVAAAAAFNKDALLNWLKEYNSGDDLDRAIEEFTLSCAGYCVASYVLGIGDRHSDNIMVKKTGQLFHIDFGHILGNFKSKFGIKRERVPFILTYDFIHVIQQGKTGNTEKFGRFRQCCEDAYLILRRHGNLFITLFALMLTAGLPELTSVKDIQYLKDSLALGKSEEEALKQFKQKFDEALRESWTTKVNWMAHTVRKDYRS

IC50 (PIK3CB (Human)) | IC50 (PIK3CA (human)) | Compound
– | < 10 nM | COc1c(OCCCN(C)C)ccc2c1N=C(NC(=O)c1ccc[n+]([O-])c1)N1CCN=C21
< 10 nM | < 10 nM | COc1c(OCCCN)ccc2c1N=C(NC(=O)c1cccnc1)N1CCN=C21
< 10 nM | < 10 nM | COc1c(OCCCN2CCOCC2)ccc2c1N=C(NC(=O)c1cnc(NCCN(C)C)nc1)N1CCN=C21
< 10 nM | < 10 nM | COc1c(OCCCN2C[C@@H](C)O[C@@H](C)C2)ccc2c1N=C(NC(=O)c1cnc(N)nc1)N1CCN=C21
< 10 nM | < 10 nM | COc1c(OCCCN2CCOCC2)ccc2c1N=C(NC(=O)c1ccc(C)nc1)N1CCN=C21
< 10 nM | < 10 nM | COc1c(OCCCN2CCOCC2)ccc2c1N=C(NC(=O)c1ccc(N(C)C)nc1)N1CCN=C21
< 10 nM | < 10 nM | COc1c(OCCCN2CCOCC2)ccc2c1N=C(NC(=O)c1cccnc1)N1CCN=C21
< 10 nM | < 10 nM | COc1c(OCCCN2C[C@@H](C)O[C@@H](C)C2)ccc2c1N=C(NC(=O)c1sc(C)nc1C)N1CCN=C21
< 10 nM | < 10 nM | COc1c(OCCCN2CCOCC2)ccc2c1N=C(NC(=O)c1ccc(N3CC[C@H](N)C3)nc1)N1CCN=C21
< 10 nM | < 10 nM | COc1c(OCCCN2CCOCC2)ccc2c1N=C(NC(=O)c1ccc(NC(=O)NC(C)C)nc1)N1CCN=C21
< 10 nM | < 10 nM | COc1c(OCCCN(C)C)ccc2c1N=C(NC(=O)c1ccc(N)nc1)N1CCN=C21
< 10 nM | < 10 nM | COc1c(OCCN(C)C)ccc2c1N=C(NC(=O)c1sc(C)nc1C)N1CCN=C21
< 10 nM | < 10 nM | COc1c(OCCN(C)C)ccc2c1N=C(NC(=O)c1cccnc1)N1CCN=C21
< 10 nM | < 10 nM | COc1c(OCCCN(C)C)ccc2c1N=C(NC(=O)c1cnc(N)nc1)N1CCN=C21
< 10 nM | < 10 nM | COc1c(OCCCN(C)C)ccc2c1N=C(NC(=O)c1cnc(N)s1)N1CCN=C21
< 10 nM | < 10 nM | COc1c(OCCCN2CCOCC2)ccc2c1N=C(NC(=O)c1ccc(NC(=O)C(C)C)nc1)N1CCN=C21
< 10 nM | < 10 nM | COc1c(OCC2CN(C)CCO2)ccc2c1N=C(NC(=O)c1cccnc1)N1CCN=C21 (centres undefined)
< 10 nM | < 10 nM | COc1c(OCCCN2CCOCC2)ccc2c1N=C(NC(=O)c1cnc(NCCO)nc1)N1CCN=C21
< 10 nM | < 10 nM | COc1c(OCCN2CCCCC2)ccc2c1N=C(NC(=O)c1cccnc1)N1CCN=C21
< 10 nM | < 10 nM | COc1c(OCCCN2C[C@@H](C)O[C@@H](C)C2)ccc2c1N=C(NC(=O)c1ccc(C)nc1)N1CCN=C21

IC50 (PIK3CB (Human)) | IC50 (PIK3CA (human)) | Compound
< 10 nM | < 10 nM | COCCNc1ccc(C(=O)NC2=Nc3c(ccc(OCCCN4CCOCC4)c3OC)C3=NCCN23)cn1
< 10 nM | < 10 nM | CCN1CCOC(CCOc2ccc3c(c2OC)N=C(NC(=O)c2cccnc2)N2CCN=C32)C1 (centres undefined)
< 10 nM | < 10 nM | COc1c(OCCCN2CCOCC2)ccc2c1N=C(NC(=O)c1cnc(N)o1)N1CCN=C21
< 10 nM | < 10 nM | COc1c(OCCCN2CCOCC2)ccc2c1N=C(NC(=O)c1ccc(F)nc1)N1CCN=C21
< 10 nM | < 10 nM | COc1c(OCCCN2CCOCC2)ccc2c1N=C(NC(=O)c1ccc(N)nc1C)N1CCN=C21
< 10 nM | < 10 nM | COCCN1CCOC(COc2ccc3c(c2OC)N=C(NC(=O)c2cccnc2)N2CCN=C32)C1 (centres undefined)
< 10 nM | < 10 nM | COc1c(OCCN2CCOCC2)ccc2c1N=C(NC(=O)c1cccnc1)N1CCN=C21
< 10 nM | < 10 nM | COc1c(OCCCN2CCOCC2)ccc2c1N=C(NC(=O)c1sc(C)nc1C)N1CCN=C21
< 10 nM | < 10 nM | COc1c(OCC(CO)CN2CCOCC2)ccc2c1N=C(NC(=O)c1cccnc1)N1CCN=C21 (centres undefined)
< 10 nM | < 10 nM | CCN(CC)CCOc1ccc2c(c1OC)N=C(NC(=O)c1cccnc1)N1CCN=C21
< 10 nM | < 10 nM | CCN(CC)CCCOc1ccc2c(c1OC)N=C(NC(=O)c1cccnc1)N1CCN=C21
< 10 nM | < 10 nM | COc1c(OCCCN2CCOCC2)ccc2c1N=C(NC(=O)c1cncn1C)N1CCN=C21
< 10 nM | < 10 nM | CNC(=O)Nc1ccc(C(=O)NC2=Nc3c(ccc(OCCCN4CCOCC4)c3OC)C3=NCCN23)cn1
< 10 nM | < 10 nM | COc1c(OCCCC2CN(CC3CCC3)CCO2)ccc2c1N=C(NC(=O)c1cccnc1)N1CCN=C21 (centres undefined)
< 10 nM | < 10 nM | COc1c(OCCN(C)C)ccc2c1N=C(NC(=O)c1cncnc1)N1CCN=C21
< 10 nM | < 10 nM | COCCN1CCOC(CCCOc2ccc3c(c2OC)N=C(NC(=O)c2cccnc2)N2CCN=C32)C1 (centres undefined)
< 10 nM | < 10 nM | COc1c(OCCCN2CCOCC2)ccc2c1N=C(NC(=O)c1sc(N)nc1C)N1CCN=C21
< 10 nM | < 10 nM | COc1c(OCCCN2CCOCC2)ccc2c1N=C(NC(=O)c1cnc(N)s1)N1CCN=C21
< 10 nM | < 10 nM | COc1c(OCCCN2C[C@@H](C)O[C@@H](C)C2)ccc2c1N=C(NC(=O)c1cncnc1)N1CCN=C21
< 10 nM | < 10 nM | CCCc1nc(N)ncc1C(=O)NC1=Nc2c(ccc(OCCCN3CCOCC3)c2OC)C2=NCCN12

IC50 (PIK3CB (Human)) | IC50 (PIK3CA (human)) | Compound
< 10 nM | < 10 nM | COc1c(OCCCN2CCOCC2)ccc2c1N=C(NC(=O)c1ccc(N3CC[C@@H](N)C3)nc1)N1CCN=C21
< 10 nM | < 10 nM | COc1c(OCCCN2CCOCC2)ccc2c1N=C(NC(=O)c1ccc(NC(=O)C3CC3)nc1)N1CCN=C21
< 10 nM | < 10 nM | COc1c(OCCCN2CCOCC2)ccc2c1N=C(NC(=O)c1ccc(N)nc1)N1CCN=C21
< 10 nM | < 10 nM | COc1cncc(C(=O)NC2=Nc3c(ccc(OCCCN4CCOCC4)c3OC)C3=NCCN23)c1
< 10 nM | < 10 nM | COc1c(OCCCN2CCOCC2)ccc2c1N=C(NC(=O)c1cnc(N)nc1C)N1CCN=C21
< 10 nM | < 10 nM | COc1c(OCCCN2C[C@@H](C)O[C@@H](C)C2)ccc2c1N=C(NC(=O)c1ccc(NC(C)=O)nc1)N1CCN=C21
< 10 nM | < 10 nM | COc1c(OCCCN2C[C@@H](C)O[C@@H](C)C2)ccc2c1N=C(NC(=O)c1ccc(N)nc1)N1CCN=C21
< 10 nM | < 10 nM | COc1c(OCCN2CCCC2)ccc2c1N=C(NC(=O)c1cccnc1)N1CCN=C21
< 10 nM | < 10 nM | CNCCCOc1ccc2c(c1OC)N=C(NC(=O)c1cccnc1)N1CCN=C21
< 10 nM | < 10 nM | COc1c(OCCCN2CCOCC2)ccc2c1N=C(NC(=O)c1ccc(NCc3ccco3)nc1)N1CCN=C21
< 10 nM | < 10 nM | COc1c(OCCCN2CCOCC2)ccc2c1N=C(NC(=O)c1ccnc(N)c1)N1CCN=C21
< 10 nM | < 10 nM | COc1c(OCCCN2CCCCC2)ccc2c1N=C(NC(=O)c1cccnc1)N1CCN=C21
< 10 nM | < 10 nM | COc1c(OCCCN2CCOCC2)ccc2c1N=C(NC(=O)c1cncnc1)N1CCN=C21
< 10 nM | < 10 nM | COc1c(OCC2CNCCO2)ccc2c1N=C(NC(=O)c1cccnc1)N1CCN=C21 (centres undefined)
< 10 nM | < 10 nM | COc1c(OCCCN(C)C)ccc2c1N=C(NC(=O)c1cccnc1)N1CCN=C21
< 10 nM | < 10 nM | COc1c(OCCCN(C)C)ccc2c1N=C(NC(=O)c1cnc(NCCN(C)C)nc1)N1CCN=C21
< 10 nM | < 10 nM | COCCNc1ncc(C(=O)NC2=Nc3c(ccc(OCCCN4CCOCC4)c3OC)C3=NCCN23)cn1
< 10 nM | < 10 nM | COc1c(OCCCN2C[C@@H](C)O[C@@H](C)C2)ccc2c1N=C(NC(=O)c1cccnc1)N1CCN=C21
< 10 nM | < 10 nM | COc1c(OCCCN2CCOCC2)ccc2c1N=C(NC(=O)c1cnc(N)c(Br)c1)N1CCN=C21

Compound | IC50 (PIK3CB (Human)) | IC50 (PIK3CA (human))
COc1c(OCCCN2CCOC(CO)C2)ccc2c1N=C(NC(=O)c1cccnc1)N1CCN=C21 (centres undefined) | < 10 nM | < 10 nM
